US9511016B2, “Topical composition for treating pain” (EpicentRx, Inc., priority 2007, dated 2016)
Several values for one entry are separate records, joined by “and”; a condition that tells them apart may be missing. Equal values may be shown once.

Legend:
Human Patient with Pain = assay: Topical treatment of human patients with pain: pain level (x/10), mobility, duration; assay type: in vivo; settings: for Mobility / stiffness after application: patient and treated site of the example or table row cited; for Observation: mobility: Table 5 patient 10, neck pain 5/10
Human Patient = assay: Systemic effects in human patients after application: breathing, peak expiratory flow, appetite, alertness; assay type: in vivo; settings: patient of the example or table row cited
From the text: Pluronic gel 20% with lecithin soya/isopropyl myristate was applied to stomach and abdominal wall.

[1] = Table 7: sacroiliac strain, bilateral sacroilitis
[2] = Ex.27, clonidine then nitropaste
[3] = Table 7: compression fracture of vertebra
[4] = Table 7: neck pain and stiffness
[5] = Table 7: patellofemoral syndrome
[6] = Table 7: back, leg, joint, hip, toe, knee pain
[7] = Table 7: sacroiliac strain, bilateral sacroilitis, listed as Albuterol inhaler

Molecule: CC(C)NCC(O)COc1ccc(CC(N)=O)cc1 (centres unmarked) [Atenolol]
- Pain level (Human Patient with Pain; Ex.10 thoracalgia, left side, initial 5/10, in series): pain completely disappeared
- Pain level (Human Patient with Pain; Ex.10 thoracalgia, right side, initial 5/10, in series): 2/10
- Pain level (Human Patient with Pain; Ex.4 hammer toes, halux valgus and rigiditus, initial 7/10, in series): no effect
- Pain level (Human Patient with Pain; Ex.5 hip, trochanteric bursitis, initial 8/10, in series): 6/10
- Pain level (Human Patient with Pain; Ex.5 knee osteoarthritis, initial 8/10): 5/10
- Pain level (Human Patient with Pain; Ex.8 hip, trochanteric bursitis, initial 8/10, in series): no change
- % Change in Pain level (Human Patient with Pain; Table 7: osteoarthritis): 37.5%
- EFFECT ON PAIN LEVEL/% change (Human Patient with Pain; Table 7: osteoarthritis): From 8/10 to 5/10
- % Change in Pain level (Human Patient with Pain; [1]): 0%
- EFFECT ON PAIN LEVEL/% change (Human Patient with Pain; [1]): No change
- % Change in Pain level (Human Patient with Pain; Table 7: trochanteric bursitis): 25%
- EFFECT ON PAIN LEVEL/% change (Human Patient with Pain; Table 7: trochanteric bursitis): From 8/10 to 6/10

Molecule: Clc1cccc(Cl)c1N=C1NCCN1 [Clonidine]
- Pain level (Human Patient with Pain; Ex.11 right arm neuroma with phantom limb, initial 4/10, in series): pain completely disappeared
- Pain level (Human Patient with Pain; Ex.17 left rotator cuff impingement and bursitis, initial printed 5110): Pain disappeared
- Pain level (Human Patient with Pain; Ex.20 ischial gluteal bursitis, initial 9/10, clonidine then nitropaste): 5/10
- Pain level (Human Patient with Pain; Ex.20 right knee osteoarthritis, from 9/10, clonidine then nitropaste): 8/10
- Pain level (Human Patient with Pain; Ex.20 right wrist carpal tunnel, initial 9/10, nitropaste then clonidine paste): 3/10
- Pain level (Human Patient with Pain; Ex.20 trochanteric bursitis, initial 9/10, clonidine then nitropaste): 5/10
- Pain level (Human Patient with Pain; Ex.21 bilateral sacroiliac strain, initial 9/10, in series): 5/10
- Pain level (Human Patient with Pain; Ex.22 bilateral rotator cuff tear, initial printed 8.5410): no effect
- Pain level (Human Patient with Pain; Ex.23 thoracalgia, initial 8/10): no effect
- Pain level (Human Patient with Pain; Ex.24 left patellofemoral syndrome, initial 7/10, in series): 3/10
- Pain level (Human Patient with Pain; Ex.25 left trochanteric bursitis, initial 7/10): disappeared
- Pain level (Human Patient with Pain; Ex.25 right thumb osteoarthritis, initial 2/10, in series): stayed the same
- Pain level (Human Patient with Pain; Ex.26 L3 vertebral compression fracture, initial 6/10, in series): 4/10
- Pain level (Human Patient with Pain; Ex.27 neck stiffness and pain, radiculopathy, initial about 6/10): pain disappeared
- Head rotation to left (Human Patient with Pain; [2]): 70 degrees
- Head rotation to right (Human Patient with Pain; [2]): 75 degrees
- Pain level (Human Patient with Pain; Ex.28 left knee, initial 6/10, nitrobid then clonidine): pain also disappeared
- Pain level (Human Patient with Pain; Ex.28 right knee osteoarthritis/patellofemoral syndrome, initial 6/10, clonidine then nitrobid): 3/10
- Pain level (Human Patient with Pain; Ex.30 diabetic lower extremity neuropathy, initial 7/10, in series): 5/10
- Pain Level, CD (Human Patient with Pain; Table 1 part II: after clonidine paste (first step), listed as CD): 3/10 and 7/10 and 6/10
- % Change in Pain level (Human Patient with Pain; [3]): 33%
- EFFECT ON PAIN LEVEL/% change (Human Patient with Pain; [3]): From 6/10 to 4/10, No
- % Change in Pain level, total over successive treatments (marked *) (Human Patient with Pain; Table 7: migraine and tension headache): *100%
- EFFECT ON PAIN LEVEL/% change (Human Patient with Pain; Table 7: migraine, tension headache, cluster headache, headache): 0/10
- % Change in Pain level (Human Patient with Pain; [4]): 100%
- EFFECT ON PAIN LEVEL/% change (Human Patient with Pain; [4]): From 6/10 to 0/10
- % Change in Pain level, total over successive treatments (marked *) (Human Patient with Pain; Table 7: osteoarthritis): *100%;
- EFFECT ON PAIN LEVEL/% change (Human Patient with Pain; Table 7: osteoarthritis): No change and From 6/10 to 3/10 and 6/10 to 0/10
- % Change in Pain level (Human Patient with Pain; [5]): 40%
- % Change in Pain level, total over successive treatments (marked *) (Human Patient with Pain; [5]): 57%
- EFFECT ON PAIN LEVEL/% change (Human Patient with Pain; [5]): From 5/10 to 3/10
- EFFECT ON PAIN LEVEL/% change (Human Patient with Pain; Table 7: rotator cuff tendinopathy, rotator cuff tear, shoulder pain, listed as Clonidine paste): From 3/10 to 0/10
- % Change in Pain level (Human Patient with Pain; Table 7: rotator cuff tendinopathy, tear, shoulder pain, listed as Clonidine paste): 100%
- EFFECT ON PAIN LEVEL/% change (Human Patient with Pain; Table 7: trochanteric bursitis): From 7/10 to 0/10
- Mobility / stiffness after application (Human Patient with Pain): improved flexibility
- Mobility / stiffness after application (Human Patient with Pain; listed as Clonidine paste): improved mobility and range of motion
- Duration of pain relief (Human Patient with Pain; patient of the example cited): 6 h
- Persistence of pain relief at follow-up (Human Patient with Pain; patient of the example cited): A day later patient reported that their knee pain was still reduced
- Time to decrease of pain (Human Patient with Pain; patient of the example cited): 5 min
- Time to decrease of pain (Human Patient with Pain; patient of the example cited, listed as clonidine): ≤ 10 min

Molecule: OCC(O)CO [GP, Glycerin]
- Observation (pain) (Human Patient with Pain; Table 4, components marked +, complaint and initial level in the same row, plus anhydrous lanolin): Pain disappeared
- Observation (pain) (Human Patient with Pain; Table 5): 10 No effect on knee
- Observation (pain) (Human Patient with Pain; Table 5, listed as Glycerin pure): 1/10
- % Change in Pain level (Human Patient with Pain; [6]): 0%
- EFFECT ON PAIN LEVEL/% change (Human Patient with Pain; [6]): No Change, then from 8/10
- % Change in Pain level (Human Patient with Pain; Table 7: osteoarthritis): 16.7%
- % Change in Pain level (Human Patient with Pain; Table 7: tarsal tunnel, carpal tunnel syndrome, wrist pain): 0%

Molecule: CC(O)CO (centres unmarked) [Propylene glycol]
- Observation (pain) (Human Patient with Pain; Table 5): No effect

Molecule: CCCCCCCCCCCCOS(=O)(=O)[O-].[Na+] [SDS 20%, Sodium dodecyl sulfate]
- Systemic effects noted (alertness, appetite, breathing, congestion, sweating, secretions) (Human Patient; listed as SDS, sulfate): improvement in breathing

Molecule: CC(C)(C)NCC(O)c1ccc(O)c(CO)c1 (centres unmarked) [albuterol inhaler, albuterol]
- Pain level (Human Patient with Pain; Ex.34 V(a) left heel (no gel), initial 8/10, inhalers in series): 6/10
- Pain level (Human Patient with Pain; Ex.34 V(a) left heel, albuterol inhaler given again (from 5/10)): 3/10
- Pain level (Human Patient with Pain; Ex.34 V(a) right heel (PLO gel applied here), initial 8/10, then inhalers in series): 4/10
- Pain level (Human Patient with Pain; Ex.34 V(a) right heel, albuterol inhaler given again (from 3/10)): 2/10
- Pain level (Human Patient with Pain; Ex.34 V(c) lower back pain over coccyx, initial 8/10, in series): no change in their back pain
- Pain level (Human Patient with Pain; Ex.34 V(c) neck pain and stiffness, initial 5/10, in series): 2/10
- Pain level (Human Patient with Pain; Ex.34 V(e) sacroiliac strain, initial 8.5/10, in series): 4/10
- Pain level (Human Patient with Pain; Ex.34 V(f) midback pain, initial 7/10): without any change
- Pain level (Human Patient with Pain; Ex.34 V(h) possible lower lumbar compression fracture, initial 5/10, in series): 6/10
- EFFECT ON PAIN LEVEL/% change (Human Patient with Pain; [4]): 2/10
- % Change in Pain level, total over successive treatments (marked *) (Human Patient with Pain; [1]): 53% to
- % Change in Pain level (Human Patient with Pain; [7]): 20%
- EFFECT ON PAIN LEVEL/% change (Human Patient with Pain; [7]): From 5/10 to 4/10
- % Change in Pain level (Human Patient with Pain; Table 7: sacroiliac strain, bilateral sacroilitis, listed as albuterol): 0%

Molecule: COc1cc(CNC(=O)CCCC/C=C/C(C)C)ccc1O [capsaicin]
- Overall analgesic effect (general statement) (Human Patient with Pain; across patients): did not have much of an effect except in a few patients

Molecule: Triton x100
- Observation: mobility (Human Patient with Pain): Slight increase in mobility

Molecule: Tween 20
- Observation: mobility (Human Patient with Pain): Increased mobility

Molecule: Tween 80
- Observation: mobility (Human Patient with Pain): More mobility
- Systemic effects noted (alertness, appetite, breathing, congestion, sweating, secretions) (Human Patient): improvement in breathing
